Test results taken from PubChem BioAssay AID1963966 (Molecular Pharmacology Branch, DTP, NCI, 2024).

Tested on: 935938-334-R-J1-PDC spheroids with HUVEC/MSC, viability
Assay: Anticancer human tumor 935938-334-R-J1-PDC patient-derived small intestine adenocarcinoma cell line growth inhibition [PI3K]
Settings: for IC50: curve of first compound; for viability, T/C: stronger effect = lower value
How it was run: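 Targeted small molecules plus PI3K inhibitors, half-log dose series from Cmax (default top 10 microM), were applied to heterotypic spheroids of cancer cells with HUVEC and MSCs. Viability indicated growth inhibition.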

[1] = second compound 0.0316 µM, first compound 0.000316 µM
[2] = second compound 0.0316 µM, first compound 0.001 µM
[3] = second compound 0.0316 µM, first compound 0.00316 µM
[4] = second compound 0.0316 µM, first compound 0.01 µM
[5] = second compound 0.0316 µM, first compound 0.0316 µM
[6] = second compound 0.0316 µM, first compound 0.1 µM
[7] = second compound 0.1 µM, first compound 0.000316 µM
[8] = second compound 0.1 µM, first compound 0.001 µM
[9] = second compound 0.1 µM, first compound 0.00316 µM
[10] = second compound 0.1 µM, first compound 0.01 µM
[11] = second compound 0.1 µM, first compound 0.0316 µM
[12] = second compound 0.1 µM, first compound 0.1 µM
[13] = second compound 0.316 µM, first compound 0.000316 µM
[14] = second compound 0.316 µM, first compound 0.001 µM
[15] = second compound 0.316 µM, first compound 0.00316 µM
[16] = second compound 0.316 µM, first compound 0.01 µM
[17] = second compound 0.316 µM, first compound 0.0316 µM
[18] = second compound 0.316 µM, first compound 0.1 µM
[19] = second compound 1 µM, first compound 0.000316 µM
[20] = second compound 1 µM, first compound 0.001 µM
[21] = second compound 1 µM, first compound 0.00316 µM
[22] = second compound 1 µM, first compound 0.01 µM
[23] = second compound 1 µM, first compound 0.0316 µM
[24] = second compound 1 µM, first compound 0.1 µM
[25] = second compound 3.16 µM, first compound 0.000316 µM
[26] = second compound 3.16 µM, first compound 0.001 µM
[27] = second compound 3.16 µM, first compound 0.00316 µM
[28] = second compound 3.16 µM, first compound 0.01 µM
[29] = second compound 3.16 µM, first compound 0.0316 µM
[30] = second compound 3.16 µM, first compound 0.1 µM
[31] = second compound 10 µM, first compound 0.000316 µM
[32] = second compound 10 µM, first compound 0.001 µM
[33] = second compound 10 µM, first compound 0.00316 µM
[34] = second compound 10 µM, first compound 0.01 µM
[35] = second compound 10 µM, first compound 0.0316 µM
[36] = second compound 10 µM, first compound 0.1 µM
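Further: compound exposure lasted seven days before viability was read.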
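Wherever viability, T/C is given: percent of vehicle DMSO treated spheroid viability so 100% = untreated.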

In the case of `CC(=O)c1c(C)c2cnc(Nc3ccc(N4CCNCC4)cn3)nc2n(C2CCCC2)c1=O` + Cc1nc(NC(=O)N2CCCC2C(N)=O)sc1-c1ccnc(C(C)(C)C(F)(F)F)c1, the IC50 (second compound 0.0316 µM) is reported as > 100 nM, the IC50 (second compound 0.1 µM) is reported as > 100 nM and the IC50 (second compound 0.316 µM) is reported as 58.2 nM. The IC50 (second compound 1 µM) was 27.8 nM, the IC50 (second compound 3.16 µM) was 2.55 nM and the IC50 (second compound 10 µM) was < 0.316 nM. The viability, T/C [1] was 104%, the viability, T/C [2] was 95.7% and the viability, T/C [3] was 112%. It also gave a viability, T/C [4] of 102%, a viability, T/C [5] of 74.8% and a viability, T/C [6] of 55.9%. The viability, T/C [7] was 94.4%, the viability, T/C [8] was 96.5% and the viability, T/C [9] was 89.4%. For the same molecule, the viability, T/C [10] was 78.5%, the viability, T/C [11] was 85.7% and the viability, T/C [12] was 52.8%. For the same molecule, the viability, T/C [13] was 87.8%, the viability, T/C [14] was 75% and the viability, T/C [15] was 63.4%. For the same molecule, the viability, T/C [16] was 80.7%, the viability, T/C [17] was 51.6% and the viability, T/C [18] was 44.1%. For the same molecule, the viability, T/C [19] was 77%, the viability, T/C [20] was 49.8% and the viability, T/C [21] was 63.3%. For the same molecule, the viability, T/C [22] was 76.4%, the viability, T/C [23] was 47.9% and the viability, T/C [24] was 31.1%. The viability, T/C [25] was 67.2%, the viability, T/C [26] was 61.8% and the viability, T/C [27] was 43.7%. The viability, T/C [28] was 42%, the viability, T/C [29] was 33.1% and the viability, T/C [30] was 29.9%. The viability, T/C [31] was 39.5%, the viability, T/C [32] was 40% and the viability, T/C [33] was 35.3%. It also gave a viability, T/C [34] of 37.2%, a viability, T/C [35] of 33.3% and a viability, T/C [36] of 26.5%.

For `CC(C)n1nc(-c2ccc3oc(N)nc3c2)c2c(N)ncnc21` + Cc1nc(NC(=O)N2CCCC2C(N)=O)sc1-c1ccnc(C(C)(C)C(F)(F)F)c1, the IC50 (second compound 0.0316 µM) was > 100 nM, the IC50 (second compound 0.1 µM) was > 100 nM and the IC50 (second compound 0.316 µM) was 17 nM. For the same molecule, the IC50 (second compound 1 µM) was 7.19 nM, the IC50 (second compound 3.16 µM) was 3.77 nM and the IC50 (second compound 10 µM) was < 0.316 nM. It also gave a viability, T/C [1] of 91.5%, a viability, T/C [2] of 91% and a viability, T/C [3] of 81.3%. It also gave a viability, T/C [4] of 93.6%, a viability, T/C [5] of 64.9% and a viability, T/C [6] of 51.6%. For the same molecule, the viability, T/C [7] was 89%, the viability, T/C [8] was 82.1% and the viability, T/C [9] was 75.9%. For the same molecule, the viability, T/C [10] was 92%, the viability, T/C [11] was 68.7% and the viability, T/C [12] was 54.5%. The viability, T/C [13] was 83.4%, the viability, T/C [14] was 72.2% and the viability, T/C [15] was 92.8%. For the same molecule, the viability, T/C [16] was 54.1%, the viability, T/C [17] was 54.9% and the viability, T/C [18] was 35.5%. It also gave a viability, T/C [19] of 66.5%, a viability, T/C [20] of 74.3% and a viability, T/C [21] of 66.8%. The viability, T/C [22] was 42.5%, the viability, T/C [23] was 37.6% and the viability, T/C [24] was 27.1%. It also gave a viability, T/C [25] of 51%, a viability, T/C [26] of 59.8% and a viability, T/C [27] of 47.8%. For the same molecule, the viability, T/C [28] was 43%, the viability, T/C [29] was 27.3% and the viability, T/C [30] was 28.9%. For the same molecule, the viability, T/C [31] was 35.5%, the viability, T/C [32] was 37.7% and the viability, T/C [33] was 61.5%. It also gave a viability, T/C [34] of 35%, a viability, T/C [35] of 37.3% and a viability, T/C [36] of 30.1%.
